Legend:
[1] = test system: IC1 M. tuberculosis MDR clinical isolate; assay: REMA MIC90, broad spectrum of microorganisms; type: cell-based; details: Mycobacterium tuberculosis, read-out: MIC to Compound 2
[2] = test system: IC2 M. tuberculosis MDR clinical isolate; assay: REMA MIC90, broad spectrum of microorganisms; type: cell-based; details: Mycobacterium tuberculosis, read-out: MIC to Compound 2

CCOC(=O)c1ccc([S-])[n+]([O-])c1.[Na+] [Compound 2, Sodium 5-(ethoxycarbonyl)pyridine-2-thiolate 1-oxide]
MIC [1]: 25 µg/mL
MIC [2]: 25 µg/mL

— patent publication US20260191845A1, “PYRIDINE-2-THIOL 1-OXIDE DERIVATIVES AND THEIR USE FOR TREATMENT OF MAMMALIAN INFECTIONS CAUSED BY MYCOBACTERIUM OR FUNGI” (priority 2022, published 2026)
